Laboratory results: PubChem BioAssay AID248 (DTP/NCI, 2004)
Several values for one entry are separate records, joined by “and”; a condition that tells them apart may be missing. Equal entries are not always repeated. Inconclusive results and toxic doses are left out. Cut-off read from the data, not from the text of the source: active = T/C of 150% or more; inactive = T/C below 125%.

Tested on: L1210 leukemia ip in BDF1 mice, survival T/C
Test: NCI In Vivo Anticancer Drug Screen. Data for tumor model L1210 Leukemia (intraperitoneal) in B6D2F1 (BDF1) mice
Details: endpoint: mean survival time, higher = longer survival
How it was run: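 Survival endpoint. Drug-treated group vs vehicle group, expressed as T divided by C. Tumor passaged by transplantation.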

[1] = dose: 100.0 mg/kg/injection, schedule: Q01DX009 (ip), vehicle: saline
[2] = dose: 150.0 mg/kg/injection, schedule: Q04DX003 (ip), vehicle: saline
[3] = dose: 200.0 mg/kg/injection, schedule: Q01DX009 (ip), vehicle: saline
[4] = dose: 400.0 mg/kg/injection, schedule: Q01DX009 (ip), vehicle: saline
[5] = dose: 100.0 mg/kg/injection, schedule: Q04DX003 (ip), vehicle: saline with Tween-80
[6] = dose: 200.0 mg/kg/injection, schedule: Q04DX003 (ip), vehicle: saline with Tween-80
[7] = dose: 400.0 mg/kg/injection, schedule: Q04DX003 (ip), vehicle: saline with Tween-80
[8] = dose: 100.0 mg/kg/injection, schedule: Q01DX009 (ip), vehicle: Klucel (hydroxypropylcellulose) (HPC)
[9] = dose: 100.0 mg/kg/injection, schedule: Q04DX003 (ip), vehicle: Klucel (hydroxypropylcellulose) (HPC)
[10] = dose: 200.0 mg/kg/injection, schedule: Q01DX009 (ip), vehicle: Klucel (hydroxypropylcellulose) (HPC)
[11] = dose: 200.0 mg/kg/injection, schedule: Q04DX003 (ip), vehicle: Klucel (hydroxypropylcellulose) (HPC)
[12] = dose: 400.0 mg/kg/injection, schedule: Q01DX009 (ip), vehicle: Klucel (hydroxypropylcellulose) (HPC)
[13] = dose: 400.0 mg/kg/injection, schedule: Q04DX003 (ip), vehicle: Klucel (hydroxypropylcellulose) (HPC)

Measured: T/C

C[n+]1cccc(O)c1
inactive: dose: 67.0 mg/kg/injection, schedule: Q04DX003 (ip), vehicle: saline 105 % of control | [1] 90 % of control | dose: 100.0 mg/kg/injection, schedule: Q04DX003 (ip), vehicle: saline 107 % of control | [2] 105 % of control | [3] 93 % of control | dose: 200.0 mg/kg/injection, schedule: Q04DX003 (ip), vehicle: saline 124 % of control | [4] 92 % of control | dose: 400.0 mg/kg/injection, schedule: Q04DX003 (ip), vehicle: saline 97 % of control

C[n+]1cccc(C(=O)NN=C2CCCCC2)c1
inactive: dose: 100.0 mg/kg/injection, schedule: Q01DX001 (ip), vehicle: saline with Tween-80 93 % of control | dose: 200.0 mg/kg/injection, schedule: Q01DX001 (ip), vehicle: saline with Tween-80 102 % of control | dose: 400.0 mg/kg/injection, schedule: Q01DX001 (ip), vehicle: saline with Tween-80 94 % of control

N#C/C(=C/Cc1ccc(Cl)cc1)Nc1ccccc1C(N)=O
inactive: dose: 12.5 mg/kg/injection, schedule: Q01DX001 (ip), vehicle: Klucel (hydroxypropylcellulose) (HPC) 101 % of control | dose: 25.0 mg/kg/injection, schedule: Q01DX001 (ip), vehicle: Klucel (hydroxypropylcellulose) (HPC) 101 % of control | dose: 50.0 mg/kg/injection, schedule: Q01DX001 (ip), vehicle: Klucel (hydroxypropylcellulose) (HPC) 102 % of control | dose: 75.0 mg/kg/injection, schedule: Q04DX003 (ip), vehicle: Klucel (hydroxypropylcellulose) (HPC) 104 % of control | dose: 115.0 mg/kg/injection, schedule: Q04DX003 (ip), vehicle: Klucel (hydroxypropylcellulose) (HPC) 104 % of control | dose: 170.0 mg/kg/injection, schedule: Q04DX003 (ip), vehicle: Klucel (hydroxypropylcellulose) (HPC) 98 % of control

O=C(CCCC(O)(C1CC1)C1CC1)C1CC1
inactive: dose: 100.0 mg/kg/injection, schedule: Q01DX009 (ip), vehicle: acetone 106 % of control | dose: 100.0 mg/kg/injection, schedule: Q04DX003 (ip), vehicle: acetone 112 % of control | dose: 200.0 mg/kg/injection, schedule: Q01DX009 (ip), vehicle: acetone 106 % of control | dose: 200.0 mg/kg/injection, schedule: Q04DX003 (ip), vehicle: acetone 101 % of control | dose: 400.0 mg/kg/injection, schedule: Q01DX009 (ip), vehicle: acetone 109 % of control | dose: 400.0 mg/kg/injection, schedule: Q04DX003 (ip), vehicle: acetone 101 % of control

O=C(O)c1ccc2c(c1Nc1ccccc1)C(=O)c1ccccc1C2=O
inactive: [1] 106 % of control | [3] 94 % of control | [4] 94 % of control

C=C(C)COc1c(C)cc(C)cc1C=Nc1ccccc1
inactive: [5] 109 % of control | [6] 106 % of control | [7] 105 % of control

COc1ccc(Br)c(CCC(C)C)c1O
inactive: [8] 110 % of control | [9] 108 % of control | [10] 95 % of control | [11] 103 % of control | [12] 89 % of control | [13] 101 % of control

NC(=O)c1cn[nH]c1/N=N/N(CCF)CCF
inactive: dose: 9.5 mg/kg/injection, schedule: Q01DX001 (ip), vehicle: other 111 % of control | dose: 10.0 mg/kg/injection, schedule: Q01DX009 (ip), vehicle: other 119 % of control | dose: 19.0 mg/kg/injection, schedule: Q01DX001 (ip), vehicle: other 124 % of control

CNC(=O)C1C(c2ccccc2)C1c1ccc(C)cc1 (stereo unspecified)
inactive: dose: 100.0 mg/kg/injection, schedule: Q04DX002 (ip), vehicle: Klucel (hydroxypropylcellulose) (HPC) 88 % of control | dose: 200.0 mg/kg/injection, schedule: Q04DX002 (ip), vehicle: Klucel (hydroxypropylcellulose) (HPC) 92 % of control | dose: 400.0 mg/kg/injection, schedule: Q04DX002 (ip), vehicle: Klucel (hydroxypropylcellulose) (HPC) 103 % of control

CC1(C)C2CC1C(O)(C(=O)O)C2 (stereo unspecified)
inactive: dose: 75.0 mg/kg/injection, schedule: Q01DX001 (ip), vehicle: acetone 94 % of control | dose: 150.0 mg/kg/injection, schedule: Q01DX001 (ip), vehicle: acetone 97 % of control | dose: 300.0 mg/kg/injection, schedule: Q01DX001 (ip), vehicle: acetone 96 % of control

CCOC(CN(Cc1ccccc1)CC(OCC)OCC)OCC
inactive: dose: 50.0 mg/kg/injection, schedule: Q04DX002 (ip), vehicle: saline with Tween-80 100 % of control | dose: 100.0 mg/kg/injection, schedule: Q04DX002 (ip), vehicle: saline with Tween-80 97 % of control and 100 % of control | dose: 200.0 mg/kg/injection, schedule: Q04DX002 (ip), vehicle: saline with Tween-80 92 % of control | dose: 400.0 mg/kg/injection, schedule: Q04DX002 (ip), vehicle: saline with Tween-80 91 % of control

O=[N+]([O-])c1cc([N+](=O)[O-])c(/C=C/c2ccccc2)c([N+](=O)[O-])c1/C=C/c1ccccc1
inactive: [8] 104 % of control | [9] 97 % of control | [10] 98 % of control | [11] 101 % of control | [12] 98 % of control | [13] 97 % of control

O=C1c2cc(Br)ccc2-c2ccc(Br)cc21
inactive: dose: 50.0 mg/kg/injection, schedule: Q01DX001 (ip), vehicle: saline 90 % of control | dose: 100.0 mg/kg/injection, schedule: Q01DX001 (ip), vehicle: saline 100 % of control | dose: 200.0 mg/kg/injection, schedule: Q01DX001 (ip), vehicle: saline 90 % of control

NCCCNC/C=C/CNCCCN
inactive: dose: 75.0 mg/kg/injection, schedule: Q04DX003 (ip), vehicle: saline 105 % of control | [2] 102 % of control | dose: 300.0 mg/kg/injection, schedule: Q04DX003 (ip), vehicle: saline 104 % of control

NNC(=O)c1cccc([N+](=O)[O-])c1
inactive: dose: 12.5 mg/kg/injection, schedule: Q04DX003 (ip), vehicle: Klucel (hydroxypropylcellulose) (HPC) 100 % of control | dose: 25.0 mg/kg/injection, schedule: Q04DX003 (ip), vehicle: Klucel (hydroxypropylcellulose) (HPC) 96 % of control

Cc1cc([N+](=O)[O-])c(Nc2ccc(F)cc2)c([N+](=O)[O-])c1
inactive: dose: 100.0 mg/kg/injection, schedule: Q01DX009 (ip), vehicle: saline with Tween-80 97 % of control | [5] 105 % of control | dose: 200.0 mg/kg/injection, schedule: Q01DX009 (ip), vehicle: saline with Tween-80 92 % of control | [6] 97 % of control | dose: 400.0 mg/kg/injection, schedule: Q01DX009 (ip), vehicle: saline with Tween-80 94 % of control | [7] 100 % of control

CCN(CC)CCN(C)C(=O)C(=O)c1ccccc1
inactive: dose: 75.0 mg/kg/injection, schedule: Q01DX001 (ip), vehicle: saline 98 % of control | dose: 150.0 mg/kg/injection, schedule: Q01DX001 (ip), vehicle: saline 101 % of control

NC(=S)N/N=C/c1cc2c(cc1Br)OCO2
inactive: dose: 50.0 mg/kg/injection, schedule: Q01DX001 (ip), vehicle: alcohol 93 % of control | dose: 100.0 mg/kg/injection, schedule: Q01DX001 (ip), vehicle: alcohol 122 % of control | dose: 200.0 mg/kg/injection, schedule: Q01DX001 (ip), vehicle: alcohol 112 % of control | dose: 400.0 mg/kg/injection, schedule: Q01DX001 (ip), vehicle: alcohol 104 % of control

C/C=C1\C(=O)C2CCC1C2 (stereo unspecified)
inactive: dose: 100.0 mg/kg/injection, schedule: Q01DX001 (ip), vehicle: carboxymethylcellulose (CMC) 93 % of control | dose: 200.0 mg/kg/injection, schedule: Q01DX001 (ip), vehicle: carboxymethylcellulose (CMC) 90 % of control | dose: 400.0 mg/kg/injection, schedule: Q01DX001 (ip), vehicle: carboxymethylcellulose (CMC) 95 % of control

Oc1ccccc1C=Nc1ccccc1S.[Co]
inactive: dose: 100.0 mg/kg/injection, schedule: Q01DX001 (ip), vehicle: other 105 % of control | dose: 200.0 mg/kg/injection, schedule: Q01DX001 (ip), vehicle: other 100 % of control | dose: 400.0 mg/kg/injection, schedule: Q01DX001 (ip), vehicle: other 105 % of control

CC(=O)N(C)CC(O)C(O)C(O)C(O)CO (stereo unspecified)
inactive: [5] 100 % of control | [6] 94 % of control | [7] 96 % of control

CC1(C)C2CCC1(C)C(OCCC#N)C2 (stereo unspecified)
inactive: dose: 100.0 mg/kg/injection, schedule: Q04DX002 (ip), vehicle: saline 93 % of control | dose: 200.0 mg/kg/injection, schedule: Q04DX002 (ip), vehicle: saline 107 % of control | dose: 400.0 mg/kg/injection, schedule: Q04DX002 (ip), vehicle: saline 104 % of control
